{
  "source": "patent US11813353B2",
  "about": "“Pharmaceutical compositions for the nasal administration of a cobalamin compound” (INNOTESTO BV, priority 2020, dated 2023)",
  "key": {"[1]": {"experiment": "Nasal absorption of hydroxocobalamin nasal spray in healthy volunteers", "assay_type": "in vivo, human", "experimental": "Healthy volunteers received a dose of 500 μg hydroxocobalamin in 50 μl nasal spray containing as main constituents hydroxocobalamin, mannitol 10% w/v, propylene glycol 10% v/v and water (total dose 500 μg hydroxocobalamin HCl) using an Aptar VP7 spray pump. The following increases of hydroxocobalamin blood levels (increase from C t=0 to Cmax after 30 minutes) were measured: […]"}, "[2]": {"conditions": "6 Crohn's disease patients, 1500 μg nasal, cited from earlier work"}, "[3]": {"conditions": "geriatric patients, cited from earlier work"}, "nasal epithelial cells": {"tested_on": "nasal epithelial cells", "conditions": "1% concentration; cited from earlier work"}, "[4]": {"conditions": "about 0.1% (w/w); versus benzalkonium chloride; cited from earlier work"}, "[5]": {"conditions": "healthy volunteers, 500 μg nasal spray"}},
  "note": "Like-named read-outs stand apart in the source and are kept apart here.",
  "data": [
    {"smiles": "C/C1=C2/[N-][C@H]([C@H](CC(N)=O)[C@@]2(C)CCC(=O)NC[C@@H](C)OP(=O)([O-])O[C@H]2[C@@H](O)[C@@H](n3cnc4cc(C)c(C)cc43)O[C@@H]2CO)[C@]2(C)N=C(/C(C)=C3N=C(/C=C4N=C1[C@@H](CCC(N)=O)C\\4(C)C)[C@@H](CCC(N)=O)[C@]\\3(C)CC(N)=O)[C@@H](CCC(N)=O)[C@]2(C)CC(N)=O.[Co+3].[OH-]", "note": "[hydroxocobalamin]", "values": [
      {"measurement": "irritation in the nose", "setting": "[1]; [5]", "result": "None of the volunteers"},
      {"measurement": "presence of red crustae in the nose afterwards", "setting": "[1]; [5]", "result": "None of the volunteers"},
      {"measurement": "CV (coefficient of variation) of mean increase", "setting": "[1]; healthy volunteers, 500 μg nasal spray, mannitol 10% w/v, propylene glycol 10% v/v", "result": 23, "unit": "%"},
      {"measurement": "vitamin B12 Cmax levels", "setting": "[1]; healthy volunteers, 500 μg nasal spray, exceeded in none of the volunteers", "result": "≤ 1.5", "unit": "ng/mL"},
      {"measurement": "Mean increase per 500 μg Hydroxocobalamin", "setting": "[1]; healthy volunteers, nasal spray, mannitol 10% w/v, propylene glycol 10% v/v, water, SD=127 pg/ml", "result": 549, "unit": "pg/mL"},
      {"measurement": "increase of hydroxocobalamin blood levels, alternative composition", "setting": "[1]; nasal spray with mannitol 5% w/v, propylene glycol 15% v/v and water", "result": "Comparable results"},
      {"measurement": "mean increase in vitamin B12 level", "setting": "[2]; three days, SD 645 pg/ml", "result": 1520, "unit": "pg/mL"},
      {"measurement": "CV (coefficient of variation) of mean increase", "setting": "[2]", "result": 42.5, "unit": "%"},
      {"measurement": "Cmax levels (±SD) after nasal administration", "setting": "[3]; dose of 750 μg", "result": "2.7 ± 1.2", "unit": "ng/mL"},
      {"measurement": "Cmax levels (±SD) after nasal administration", "setting": "[3]; dose", "result": "4.7 ± 3.4", "unit": "ng/mL"}
    ]},
    {"smiles": "OC[C@@H](O)[C@@H](O)[C@H](O)[C@H](O)CO", "note": "[mannitol]", "values": [
      {"measurement": "cellular damage", "setting": "nasal epithelial cells", "result": "no cellular damage"}
    ]},
    {"smiles": "C/C=C/C=C/C(=O)[O-].[K+]", "note": "[potassium sorbate]", "values": [
      {"measurement": "safety as a preservative in nasal products", "setting": "[4]", "result": "much more safe than benzalkonium chloride"}
    ]}
  ]
}
